# What was measured:
# [1] = molecular target: T1, Glutathione-S-transferase-labeled FXR human protein (Homo sapiens, UniProt Q96RI1); assay: FXR biochemical experiment (AlphaScreen, coactivator recruitment); conditions: for EC50: AlphaScreen, GST-FXR human protein + biotin-labeled steroid receptor coactivator, read-out: FXR enzyme activity EC50; for Emax: ratio of highest signal of the compound to that of the reference compound, read-out: FXR enzyme activity Efficacy
# T1 construct: purchased Invitrogen
# T1 sequence (Q96RI1 1-486): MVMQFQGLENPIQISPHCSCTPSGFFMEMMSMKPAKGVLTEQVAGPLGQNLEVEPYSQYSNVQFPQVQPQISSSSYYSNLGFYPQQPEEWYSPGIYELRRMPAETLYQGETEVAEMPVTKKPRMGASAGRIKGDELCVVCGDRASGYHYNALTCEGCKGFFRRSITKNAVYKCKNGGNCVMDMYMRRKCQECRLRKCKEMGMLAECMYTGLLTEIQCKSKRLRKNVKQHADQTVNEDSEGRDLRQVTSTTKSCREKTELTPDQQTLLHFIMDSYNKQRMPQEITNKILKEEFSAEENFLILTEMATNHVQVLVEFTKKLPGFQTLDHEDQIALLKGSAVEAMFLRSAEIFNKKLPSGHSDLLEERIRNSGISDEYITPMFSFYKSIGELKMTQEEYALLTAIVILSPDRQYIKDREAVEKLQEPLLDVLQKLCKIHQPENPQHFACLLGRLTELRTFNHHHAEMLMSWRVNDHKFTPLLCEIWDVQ
# Protocol: FXR Biochemical Experiment Experimental Purpose: The activation effect of the compound on FXR binding reaction was detected by AlphaScreen. […] Protein: Glutathione-S-transferase-labeled FXR human protein (Invitrogen) 2. Co-activator: Biotin-labeled steroid receptor coactivator (Anaspec) 3. […] Compound Dilution: The compound to be tested was prepared as a 40 μM DMSO solution, and then diluted 3-fold to 10 concentration points. The reference compound was prepared as a 400 μM DMSO solution, and then diluted 1.5-fold to 10 concentration points. The diluted DMSO solution was added to the wells of a 384-well plate in a volume of 150 nL per well. 2. […] 4. […] The operation during the experimental process was protected from light. The incubation was performed for 1 hour at room temperature. 5. […] The operation during the experimental process was protected from light. The incubation was performed for 1 hour at room temperature. 6. EC50 test: Envision was used with excitation at 680 nm to read the […] signals at 520-620 nm. 7. Analytical data: The data were analyzed via using Prism 5.0, and the EC50 values of the activation effects of the compounds were calculated.
# [2] = molecular target: T2, FXR (FXR HEK 293T DA cell line) (Homo sapiens, UniProt Q96RI1); assay: FXR cell experiment (β-lactamase reporter gene, GeneBLAzer); format: cell-based; conditions: for EC50: FXR HEK 293T DA cells, β-lactamase reporter, 16 hours; for Emax: HEK-293T, read-out: FXR cell activity Efficacy;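 for FXR cell activity Efficacy: Emax relative to maximal signal of reference agonist chenodeoxycholic acid (CDCA)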
# T2 construct: expressed in transfected cells; host or cells: HEK 293T (FXR HEK 293T DA)
# Protocol: Compound Dilution: The compound to be tested was prepared as a 100 μM DMSO solution, and then the compound was diluted 3-fold to 10 concentration points. The reference compound was prepared as a 100 μM DMSO solution, and then diluted 1.3-fold to 10 concentration points. The diluted DMSO solution was added to the wells of a 384-well plate in a volume of 200 nL per well. 2. […] The 384-well microplate was incubated at 37° C., 5% CO2 for 16 hours. 4. 6 μL of 1 mM LiveBLAzer™-FRET B/G (CCF4-AM) substrate was mixed with 60 μL of B solution and 934 μL of C solution, and added to the wells of the 384-well plate in a volume of 8 μL per well. […] The 384-well microplate was incubated in dark for 2 hours at room temperature. 6. […] 7.
# [3] = Pharmacokinetics in mice administrated with single compound; format: in vivo, mice (C57BL/6J); conditions: for drug exposure compared with control compound INT-747 / peak concentration compared with control compound INT-747: mice, oral administration at the same dosage
# Protocol: Pharmacokinetics in Mice Administrated with Single Compound:
# 12 male mice (C57BL/6J) were randomly divided into two groups, i.e., 6 mice per group. […] Plasma (using K2-EDTA as anticoagulant) samples were taken at 0.083, 0.25, 0.5, 1, 2, 4, 6, 8 and 24 hours in the intravenous administration group after administration; and plasma samples were taken at 0.25, 0.5, 1, 2, 4, 6, 8 and 24 hours in the oral administration group after administration. For 6 animals in each group, blood samples were collected for 3 animals at one time point. The first batch of 3 animals was alternately sampled with the second batch of 3 animals. Plasma sample analysis was performed by using LC-MS/MS. The resultant plasma concentrations were plotted with repect to time, and PK parameters were calculated by using Phoenix WinNonlin 6.3.
# [4] = Liver-blood ratio experiment of mice via cassette dosing; format: in vivo, mice (C57BL/6J); conditions: for Concentration in liver / Concentration in plasma / Concentration ratio of liver to plasma: oral cassette 2 mg/kg
# Protocol: Liver-Blood Ratio Experiment of Mice Via Cassette Dosing
# 6 male mice (C57BL/6J) were grouped as an oral administration group. 5 kinds of the developed drugs were contained in the formulation, and intragastrical administration was performed at a dose of 2 mg/kg/compound (the vehicle was 0.5% HPMC aqueous solution). The five compounds were firstly and respectively dissolved in the vehicle, and sonicated or whirled to form a 1 mg/mL solution (clear solution or suspension), respectively; and then the solutions of the five compound were mixed in equal volumes (1:1:1:1:1, v:v:v:v:v) into a glass bottle. After intragastrical oral administration, plasma and liver tissue samples were collected from 3 animals at 0.5 h after administration; corresponding samples were collected from the other 3 animals at 3 h after administration. After collection, the liver tissue was homogenized by using ice-cold homogenization buffer (methanol:15 mM PBS buffer (pH 7.4)=1:2, v:v) based on the ratio of liver weight:homogenization buffer volume=1:3. Plasma and liver tissue samples were analyzed by using a five-in-one LC-MS/MS analysis method developed in advance. The concentrations of plasma and liver tissue homogenate were obtained, and the concentration ratios of liver tissue to plasma were calculated by using Excel.
# [5] = mouse, plasma, male C57BL/6J mice, oral 10 mg/kg
# [6] = oral, same dosage, at 0.5 h and 3 h
# T2 sequence (Q96RI1 with tags, fused parts or gaps limits assumed): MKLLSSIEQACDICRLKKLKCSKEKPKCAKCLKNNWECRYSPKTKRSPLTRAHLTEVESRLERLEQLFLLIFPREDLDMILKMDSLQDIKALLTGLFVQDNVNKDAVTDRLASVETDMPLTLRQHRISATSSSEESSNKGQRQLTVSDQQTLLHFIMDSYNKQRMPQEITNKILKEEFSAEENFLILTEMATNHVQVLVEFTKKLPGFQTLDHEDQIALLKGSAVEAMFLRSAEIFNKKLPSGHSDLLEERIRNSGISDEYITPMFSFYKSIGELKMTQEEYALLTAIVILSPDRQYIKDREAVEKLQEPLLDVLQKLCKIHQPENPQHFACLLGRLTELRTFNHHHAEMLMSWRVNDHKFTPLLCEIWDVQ
Compound,EC50 [1] [µM],Emax [1] [%],EC50 [2] [µM],Emax [2] [%],also measured
CC[C@H]1[C@@H](O)[C@@H]2[C@H](CC[C@]3(C)[C@@H]([C@H](C)CCN4CC(C(=O)O)CCC4=O)CC[C@@H]23)[C@@]2(C)CC[C@@H](O)C[C@@H]12 (some centres unmarked) [Example 1],0.9,320,17.9,134,–
CC[C@@H]1C2C[C@H](O)CC[C@]2(C)[C@H]2CC[C@]3(C)[C@@H]([C@H](C)CCn4cc(C(=O)O)cn4)CC[C@H]3[C@@H]2[C@@H]1O (some centres unmarked) [Example 4],0.72,334,1.87,131,–
CC[C@H]1[C@@H](O)[C@@H]2[C@H](CC[C@]3(C)[C@@H]([C@H](C)CCn4cc(C(=O)O)ccc4=O)CC[C@@H]23)[C@@]2(C)CC[C@@H](O)C[C@@H]12 [Example 5],0.09,134,0.57,190,–
CC[C@H]1[C@@H](O)[C@@H]2[C@H](CC[C@]3(C)[C@@H]([C@H](C)CCn4ccc(C(=O)O)cc4=O)CC[C@@H]23)[C@@]2(C)CC[C@@H](O)C[C@@H]12 [Example 6],0.36,375,5.16,132,–
CC[C@H]1[C@@H](O)[C@@H]2[C@H](CC[C@]3(C)[C@@H]([C@H](C)CCOc4cccc(C(=O)O)c4)CC[C@@H]23)[C@@]2(C)CC[C@@H](O)C[C@@H]12 [Example 7],0.03,360,0.06,140,–
CC[C@H]1[C@@H](O)[C@@H]2[C@H](CC[C@]3(C)[C@@H]([C@H](C)CCOc4cc(C(=O)O)ccn4)CC[C@@H]23)[C@@]2(C)CC[C@@H](O)C[C@@H]12 [Example 9],0.16,407,0.14,130,–
CC[C@H]1[C@@H](O)[C@@H]2[C@H](CC[C@]3(C)[C@@H]([C@H](C)CCOc4ccc(C(=O)O)nc4)CC[C@@H]23)[C@@]2(C)CC[C@@H](O)C[C@@H]12 [Example 10],0.06,188,0.2,138,–
CC[C@H]1[C@@H](O)[C@@H]2[C@H](CC[C@]3(C)[C@@H]([C@H](C)CCOc4cncc(C(=O)O)c4)CC[C@@H]23)[C@@]2(C)CC[C@@H](O)C[C@@H]12 [Example 11],0.03,241,0.1,132,"drug exposure compared with control compound INT-747 [3]: higher; peak concentration compared with control compound INT-747 [3]: higher; AUC [3, 5]: 5.17 µM·h; Cmax [3, 5]: 1.43 µM; Tmax [3, 5]: 2 h"
CC[C@H]1[C@@H](O)[C@@H]2[C@H](CC[C@]3(C)[C@@H]([C@H](C)CCCn4cc(C(=O)O)ccc4=O)CC[C@@H]23)[C@@]2(C)CC[C@@H](O)C[C@@H]12 [Example 17],0.6,313,2.5,131,–
CC[C@H]1[C@@H](O)[C@@H]2[C@H](CC[C@]3(C)[C@@H]([C@H](C)CCc4cccc(C(=O)O)c4)CC[C@@H]23)[C@@]2(C)CC[C@@H](O)C[C@@H]12 [Example 19],0.15,251,0.37,143,–
CC[C@H]1[C@@H](O)[C@@H]2[C@H](CC[C@]3(C)[C@@H]([C@H](C)CCOc4ccc(C(=O)O)cn4)CC[C@@H]23)[C@@]2(C)CC[C@@H](O)C[C@@H]12 [Example 22],–,249,–,–,"drug exposure compared with control compound INT-747 [3]: higher; peak concentration compared with control compound INT-747 [3]: close to; bioavailability ([3]; mouse, plasma, male C57BL/6J mice, oral 10 mg/kg vs intravenous 2 mg/kg): 34%; Concentration in liver ([4]; 0.5 h): 1.959 µM; Concentration in plasma ([4]; 0.5 h): 0.083 µM; Concentration ratio of liver to plasma ([4]; 0.5 h): 24; Concentration in liver ([4]; 3 h): 0.701 µM; Concentration in plasma ([4]; 3 h): 0.045 µM; Concentration ratio of liver to plasma ([4]; 3 h): 16; drug concentrations in the liver compared with control compound [4, 6]: higher; liver/blood concentration ratios compared with control compound [4, 6]: higher"
CC[C@H]1[C@@H](O)[C@@H]2[C@H](CC[C@]3(C)[C@@H]([C@H](C)CCOc4ncc(C(=O)O)cc4Cl)CC[C@@H]23)[C@@]2(C)CC[C@@H](O)C[C@@H]12 [Example 23],–,248,–,150,drug exposure compared with control compound INT-747 [3]: higher; peak concentration compared with control compound INT-747 [3]: higher
CC[C@H]1[C@@H](O)[C@@H]2[C@H](CC[C@]3(C)[C@@H]([C@H](C)CCOc4ncccc4C(=O)O)CC[C@@H]23)[C@@]2(C)CC[C@@H](O)C[C@@H]12 [Example 26],0.13,280,–,–,"Concentration in liver ([4]; 0.5 h): 3.904 µM; Concentration in plasma ([4]; 0.5 h): 0.387 µM; Concentration ratio of liver to plasma ([4]; 0.5 h): 10; Concentration in liver ([4]; 3 h): 0.358 µM; Concentration in plasma ([4]; 3 h): 0.018 µM; Concentration ratio of liver to plasma ([4]; 3 h): 20; drug concentration in the liver compared with control compound ([4]; oral, same dosage, at 0.5 h): higher; liver/blood concentration ratios compared with control compound [4, 6]: higher"

# Reference: US11667667B2, “Steroid derivative FXR agonist” (Chia Tai Tianqing Pharmaceutical Group Co., Ltd., priority 2016, dated 2023)
